Data from PMC6021127 (Nature chemistry, 2017).
Where two headings read alike, the source gives them in different places.

Experiments:
[1] = tested on: P388 murine leukemia cell lines; assay: Cytotoxicity against P388 murine leukemia cells
[2] = tested on: A2058 melanoma cell line; assay: Cytotoxicity against A2058 melanoma cells
[3] = tested on: DU145 prostate cancer cell line; assay: Cytotoxicity against DU145 prostate cancer cells
[4] = tested on: NCI 60 cell line panel; assay: NCI 60 cell line panel evaluation; assay type: cell-based; settings: read-out: mean GI50
[5] = read-out: Cytotoxicity IC50, P388, P388 murine leukemia cells
[6] = read-out: Cytotoxicity IC50, A2058, A2058 melanoma cells
[7] = read-out: Cytotoxicity IC50, DU145, DU145 prostate cancer cells
[8] = Homo sapiens, A2058, read-out: Cytotoxicity IC50, A2058
[9] = Homo sapiens, DU-145, read-out: Cytotoxicity IC50, DU145

Row | Structure (SMILES) | IC50 [1, 5] [µM] | IC50 [2, 6] [µM] | IC50 [3, 7] [µM] | IC50 [2, 8] [µM] | IC50 [3, 9] [µM] | further results
1 | C=C1[C@@H](O)C[C@H]2C(C)(C)CCC[C@]2(C)[C@H]1C[C@H](O)[C@H]1CC(=O)NC1=O [compound 8, haterumaimide Q] | 0.2 | 2.34 | 1.49 |  |  | 
2 | C=C1[C@@H](O)C[C@H]2C(C)(C)[C@@H](Cl)[C@H](Cl)C[C@]2(C)[C@H]1C[C@H](O)[C@H]1CC(=O)NC1=O [compound 4, dichlorolissoclimide, reference compound] |  |  |  |  |  | IC50 ([1]; Mus musculus, P388, read-out: Cytotoxicity IC50 against P388): ~0.4 µM
3 | C=C1[C@@H](O)C[C@H]2C(C)(C)C[C@H](Cl)C[C@]2(C)[C@H]1C[C@H](O)[C@H]1CC(=O)NC1=O [compound 3, chlorolissoclimide] |  |  |  | 0.25 | 0.49 | GI50 [4]: 0.015 µM
4 | C[C@@H]1C[C@@H]([C@H](O)CC2CC(=O)NC(=O)C2)C(=O)[C@@H](C)C1 [compound 2, cycloheximide, reference compound] |  |  |  | > 10 | > 10 | IC50 ([1]; Mus musculus, P388, read-out: Cytotoxicity IC50, P388): 5.6 µM
5 | C=C1[C@@H](OC(C)=O)C[C@H]2C(C)(C)C[C@H](Cl)C[C@]2(C)[C@H]1C[C@H](O)[C@H]1CC(=O)NC1=O [compound 7] | 2.1 | 3.46 | 0.46 |  |  | 
6 | COC(=O)C[C@](O)(CCCC(C)(C)O)C(=O)O[C@@H]1C(OC)=C[C@]23CCCN2CCc2cc4c(cc2[C@H]13)OCO4 [compound 1, homoharringtonine, reference compound] |  |  |  | 0.17 | 0.23 | 
